Reference: patent US9145375B2, “Quinazolinone compounds” (PRANA BIOTECHNOLOGY LIMITED, priority 2008, dated 2015)
Where “and” joins values, the source holds several entries; their conditions need not be identical. Identical values can stand only once.

What was measured:
[1] = tested on: MPTP induced cell death in the SN; experiment: Parkinson's disease in vivo: MPTP model; design: species or system mouse; details: MPTP mice; for Behaviour Pole Test, % (SSV = 0%) / Behaviour Pole Test, value ± SD: 30 mg/kg; for SN cell counts % of SSV / SN cell counts (cells +/− SD): test drug 30 mg/kg daily by oral gavage, several experiments
From the text: Parkinson's Disease In Vivo Technique: MPTP
MPTP (1-methyl 4-phenyl 1,2,3,6-tetrahydropyridine) is a chemical that is related to the opioid analgesic drugs. MPTP causes Parkinsonian side-effects. This occurs when MPTP is metabolized into MPP+, which kills neurons in a part of the brain called the substantia nigra. MPP+ interferes with mitochondria metabolism which leads to cell death and causes the build up of free radicals, toxic molecules that contribute further to cell destruction. MPTP has abilities to effect neuronal death in dopaminergic cells. Such effects lead to gross depletion of dopaminergic neurons which has severe implications on cortical control of complex movements.
General Experimental Design
Determining that MPTP Causes Continued Cell Death
Control (non tg) and transgenic mice receive five intraperitoneal injections of MPTP-HCl (23 gauge needle, 20 mg\kg of free base; Sigma, St. Louis, Mo., USA) dissolved in sterile 0.9% saline at 2-h interval in 1 day. Control animals receive five intraperitoneal injections of 0.9% saline. […] 20 C57BL6, 10 control and 10 hA53T tg are used to establish the precise dose of toxin at 2 weeks. Animals are allowed to recover for 1 week, 2 weeks, 1 month, 12, months and 18 months. The animals are killed and the brains removed for histological (stereological) and biochemical analysis.
Determining Whether Test Drug Reduces MPTP Induced Cell Death
Animals are treated as described above. They are treated with test drug 2 days after MPTP injection until death. Test drug is given by oral gavage at a daily dosage of 30 mg/kg. The time of killing the animals is dependant on the analysis of Experiment 1, normally one month or less.
Drugs are administered by oral gavage, at a daily dosage of 30 mg/kg.
Mice are assessed at prior to killing the mice for histological analysis.
Motor coordination and strength are assessed using the rotarod. The rotarod consists of a plastic rotating rod of 3.6 cm axial diameter partitioned by metal disks into five sections to allow the testing of multiple mice simultaneously. Mice are trained on two sessions where the rotation speed is ramped from 0-30 rpm over 5 min and one training session where rotation is a constant 16 rpm for 5 min. Within two days of training, animals are formally assessed on the rotarod rotating at 16 rpm for a maximum of 3 min: the time to fall on this single test is the recorded data point.
The pole is a 700 mm long, 5 mm diameter, wooden rod. The rod is supported at its base and held vertical. The total walking distance for the mice is 550 mm. The time taken for the mouse to descend the pole is measured with a maximum time of 120 s. If a mouse falls, the time is scored as 120 s.

[2] = tested on: Fe-DA; experiment: H2O2 assay, Fe-DA (% cf. Fe 0.4 μM/DA 50 μM); format: biochemical
Method: (§1) This fluoresence assay evaluates the ability of a test compound to inhibit the generation of hydrogen peroxide (H2O2) by iron in the presence of a reducing substrate such as ascorbic acid. In the assay, iron in the form of FeCl3 or copper is allowed to react with ascorbic acid by incubating for 1 hr at 37° C. in the presence of the fluorescing compound DCF and horseradish peroxidase. H2O2 generated by the system is assessed by measuring the specific fluorescence profile at the excitation and emission wavelengths of 485 and 530 nm respectively, in the presence of increasing concentrations of test compound. Test compounds are ranked according to their capacity to inhibit H2O2 generated by the system where lower values reflect greater ability to inhibit H2O2 production.

[3] = tested on: generation of hydrogen peroxide (H2O2) by iron; experiment: H2O2 Inhibition Assay; format: biochemical
Method: Assay 1. H2O2 Inhibition Assay.
as §1

[4] = tested on: M17 human neuroblastoma cells; experiment: Metal Uptake Assay (metal transport); format: cell-based; details: 10 μM Cu + 10 μM compound, 5 hours
Method: Assay 3. Metal Uptake Assay
M17 human neuroblastoma cells are plated out on 6 well plates and left overnight. Enough cells are added to give approximately 70% confluent the following day of the experiment. Test compounds are added to media and mixed with equi-molar amounts of CuCl2 solution. A=10 μM Cu+10 μM MPAC; B=10 μM Cu+10 μM MPAC.
Cells are incubated in 1 ml of media/MPAC/Cu mix for 5 hours at 37° C. At the end of the incubation the media is removed with a vacuum aspirator and 1 ml of PBS added to dislodge the cells. Cells are then put into Eppendorf tubes and pelleted. The PBS is removed and the remaining cell pellets are frozen at −20 C.
The cell pellets are prepared as follows:
Received cell pellets of similar levels in 1.5 ml microfuge tubes. Added 50 μl of concentrated Nitric Acid (Aristar, BDH) to each cell pellet and allowed them to digest over night. Heated the samples for 20 min at 90° C. to complete the digestion. The volume of each sample was reduced to ˜45 ul after digestion. Added 1 ml of the 1% Nitric Acid diluent to each sample. (referred to as the “preparation solution” samples).
Measurements were made using a Varian UltraMass ICPMS instrument under operating conditions suitable for routine multi-element analysis.
The instrument was calibrated using Blank, 10, 50 and 100 ppb of a certified multi-element ICPMS standard solution (ICP-MS—CAI2-1, Accustandard) for Fe, Cu and Zn in 1% nitric acid. Used an certified internal standard solution containing 100 ppb Yttrium (Y 89) as an internal control (ICP-MS—IS-MIX1-1, Accustandard).

[5] = tested on: M17; experiment: Cytotox (% viable), cells marked M17; format: cell-based, human; details: repeat values given
[6] = Mouse Plasma Conc.; format: in vivo; details: given as 'Up to'
[7] = tested on: Neuronal cortical cells; experiment: Cytotox (% viable); Primary Neuronal Cells Neurotoxicity Assay; format: cell-based, mouse; details: cell type not given, repeat values given
Method: Assay 2 (a). Primary Neuronal Cells Neurotoxicity Assays
Cortical cultures were prepared as previously described (White et al., 1998). Embryonic day 14 BL6Jx129sv mouse cortices were removed, dissected free of meninges and dissociated in 0.025% (wt/vol) trypsin. Dissociated cells were plated in 48 well culture plates at a density of 2×10^6 cells/mL in MEM with 25% (vol/vol) FCS and 5% (vol/vol) HS and incubated at 37° C., 2 hrs. Media was then replaced with Neurobasal media (Invitrogen Life Technologies) and B27 supplements (Invitrogen Life Technologies). Cultures were maintained at 37° C. in 5% CO2. Prior to experimentation, the culture medium was replaced with Neurobasal media and B27 minus antioxidants (Invitrogen Life Technologies).
Neuronal cortical cells were cultured for five days as per Assay 2 in NB media and B27 supplement.
On day six the test compounds were added to the neuronal cell cultures in NB media and B27 supplement minus antioxidants.
Test compounds were dissolved in 100% DMSO to a concentration of 2.5 mM (10 mM if excess compound was weighed out per vial—then diluted to 2.5 mM). 2.5 mM stock solution was serially diluted 1 in 10 to give working solutions of 250 uM, 25 uM, 2.5 uM. Test compounds were not added directly to cells, instead they were added to a 48 well ‘Drug Plate’ as comprised below: • Preparation of “Drug Plate”:
Well 1: 576 ul NB+B27 (no antioxidant)*+24 ul 2.5 uM test compound
Well 2: 576 ul NB+B27 (no antioxidant)+24 μl 25 uM test compound
Well 3: 576 ul NB+B27 (no antioxidant)+24 ul 250 uM test compound
Well 4: 576 ul NB+B27 (no antioxidant)+24 ul 2.5 uM test compound
Well 5: 576 ul NB+B27 (no antioxidant)+24 ul 25 uM test compound
Well 6: 576 ul NB+B27 (no antioxidant)+24 ul 250 uM test compound
Well 7: 576 ul NB+B27 (no antioxidant)+24 ul test compound diluent**
Well 8: 600 ul NB+B27 (no antioxidant)
The Drug Plate was incubated at 37° C. for 15 mins. 200 ul of each well was added in triplicate to the corresponding cell plate. The cell plate was incubated at 37° C., for 4 days, (2 compounds are tested on each plate of cells).
*NB media and B27 (no antioxidants),
**PBT diluent 10% DMSO in NB+1327 (no antioxidants)
On completion of the assay, 1/10 volume MTS was added per well of plate (ie 25 ul/250 ul). The plates were incubated at 37° C. for 2 hrs, and then absorbance was read at 560 nm.

Structure (SMILES) | Behaviour Pole Test, % (SSV = 0%) [1] [%] | Behaviour Pole Test, value ± SD [1] | SN cell counts % of SSV [1] [%] | SN cell counts (cells +/− SD) [1] | Fe-DA % cf. Fe 0.4 μM/DA 50 μM [2] [%] | IC50 [3] [nM] | Metal transport [4] | Cytotox (% viable at 1 uM) [5] | Cytotox (% viable at 10 uM) [5] | Mouse Plasma Conc. [6] [ng/mL] | Fe-DA % cf. Fe/DA ([2]; 2 μM Fe) [%] | Cytotox (% viable at 1 uM) [7] | Cytotox (% viable at 10 uM) [7]
CCCn1c(CNC)nc2c(O)c(Cl)cc(Cl)c2c1=O [Compound F4095, 5,7-Dichloro-8-hydroxy-2-((methylamino)methyl)-3-propylquinazolin-4(3H)-one] | 24.25 | (2.21 ± 0.89) | 12.15 | (2436.00 ± 603.06) cells | – | – | – | – | – | – | – | – | –
CC(C)Cn1c(CN(C)C)nc2c(O)c(Cl)cc(Cl)c2c1=O.Cl [Compound F4271, 5,7-Dichloro-2-((dimethylamino)methyl)-8-hydroxy-3-isobutylquinazolin-4(3H)-one] | – | – | – | – | 57 | 170 | Metal transport 27.8% | 104.4% and 102.3% | 61.5% and 52.5% | – | – | – | –
CCN1CCN(Cc2nc3c(O)c(Cl)cc(Cl)c3c(=O)n2CC2CC2)CC1 [Compound F4383] | – | – | – | – | 81 | 1510 | Metal transport 8% | 118.5% and 102.3% | 103.4% and 92.7% | – | – | – | –
O=c1c2c(Cl)cc(Cl)c(O)c2nc(CN2CCOCC2)n1CC1CC1 [Compound F4384] | – | – | – | – | – | – | Metal transport 17% | 116.3% and 106.4% | 86.5% and 73.0% | – | – | – | –
CCN(CC)Cc1nc2c(O)c(Cl)cc(Cl)c2c(=O)n1CC [Compound F4386] | – | – | – | – | 77 | 330 | Metal transport 13% | 101.8% and 99.8% and 101.4% and 107.9% | 105.2% and 91.9% and 111.7% and 106.8% | ≤ 3294.1 | – | – | –
O=c1c2c(Cl)cc(Cl)c(O)c2nc(CN2CCCCC2)n1CC1CC1 [Compound F4391] | 9.96 | (2.63 ± 1.10) | 25.18 | (2719.11 ± 255.12) cells | – | 590 | Metal transport 34% | 87.4% and 95.9% and 96.0% | 57.5% and 70.5% and 66.5% | ≤ 17255.9 | 97 | – | –
CCN(CC)Cc1nc2c(O)c(Cl)cc(Cl)c2c(=O)n1C [Compound F4473] | – | – | – | – | 62 | 600 | Metal transport 9% | – | – | ≤ 1356.2 | – | 97.0% and 99.0% | 91.6% and 106.1%
CCn1c(CN2CCCCC2)nc2c(O)c(Cl)cc(Cl)c2c1=O [Compound F4483] | – | – | – | – | 62 | 330 | Metal transport 22% | – | – | ≤ 1585.2 | – | 93.4% and 105.5% | 99.7% and 72.3%
CCCN(CCC)Cc1nc2c(O)c(Cl)cc(Cl)c2c(=O)n1CC [Compound F4550] | – | – | – | – | 128 | 750 | Metal transport 35% | – | – | – | – | 88.7% and 94.7% | 71.7% and 83.5%
CCCN(CCC)Cc1nc2c(O)c(Cl)cc(Cl)c2c(=O)n1C [Compound F4551] | – | – | – | – | 56 | 450 | Metal transport 30% | – | – | – | – | 89.7% and 96.9% | 50.7% and 62.5%
CCCCN(C)Cc1nc2c(O)c(Cl)cc(Cl)c2c(=O)n1C [Compound F4552] | – | – | – | – | 59 | 630 | Metal transport 94% | – | – | – | – | 97.8% and 99.0% | 58.7% and 62.8%
